According to US20060235020A1, “Process for preparing salts of 4-[[5-[(cyclopropylamino)carbonyl]-2-methylphenyl]amino]-5-methyl-N-propylpyrrolo[2,1-f][1,2,4]triazine-6-carboxamide and novel stable forms produced therein” (priority 2005, published 2006):
Like-named read-outs stand apart in the source and are kept apart here.

Columns and labels:
[1] = slurries in THF, acetonitrile, acetone and DMF/acetone at room temperature
Description: Form N-4 of the hydrochloric acid salt of the free base I crystallizes from organic solvents, preferably DMF/acetone.

[2] = Protocol: Moisture sorption isotherms were collected in a VTI SGA-100 Symmetric Vapor Analyzer using approximately 10 mg of sample. The sample was dried at 60° C. until the loss rate of 0.0005 wt %/min was obtained for 10 minutes. The sample was tested at 25° C. (for free base 1 and N-1 HCl salt) or 30° C. (for N-4 HCl salt) and 3 or 4, 5, 15, 25, 35, 45, 50, 65, 75, 85, and 95% RH. Equilibration at each RH was reached when the rate of 0.0003 wt %/min for 35 minutes was achieved or a maximum of 600 minutes.
[3] = Stability of the crystals in the solid state; format: physicochemical; conditions: isolated solid

Structure (SMILES) | relative stability of the crystal form in slurries ([1]; listed as Form N-1) | hygroscopicity / water uptake (moisture-sorption isotherm) ([2]; about 25 to about 75% RH at 25° C.) | hygroscopicity / water uptake (moisture-sorption isotherm) ([2]; about 25 to about 75% RH at 25° C., listed as Form N-1 crystals of the hydrochloric acid salt of free base I) | stability in the solid state form [3] | relative stability of the crystal form in slurries ([1]; listed as Form N-4) | hygroscopicity / water uptake (moisture-sorption isotherm) ([2]; about 25 to about 75% RH at 30° C.) | hygroscopicity / water uptake (moisture-sorption isotherm) ([2]; about 25 to about 75% RH at 30° C., listed as Form N-4 crystals of free base I)
CCCNC(=O)c1cn2ncnc(Nc3cc(C(=O)NC4CC4)ccc3C)c2c1C.Cl [Form N-1 hydrochloride salt, hydrochloric acid salt of 4-[[5-[(cyclopropylamino)carbonyl]-2-methylphenyl]amino]-5-methyl-N-propylpyrrolo[2,1-f][1,2,4]triazine-6-carboxamide] | convert to Form N-4 | non-hygroscopic | negligible water uptake | remain stable in the solid state form | – | – | –
CCCNC(=O)c1cn2ncnc(Nc3cc(C(=O)NC4CC4)ccc3C)c2c1C.Cl [Form N-4 salt, hydrochloric acid salt of 4-[[5-[(cyclopropylamino)carbonyl]-2-methylphenyl]amino]-5-methyl-N-propylpyrrolo[2,1-f][1,2,4]triazine-6-carboxamide] | – | – | – | – | stable form at room temperature | non-hygroscopic | negligible water uptake
